The text below walks through data of US10422788B2, “Profiling peptides and methods for sensitivity profiling” (Tolero Pharmaceuticals, Inc., priority 2016, dated 2019).

Assay [1] has as its system subject samples. Briefly: Reference Lab NOXA priming assay on subject samples. The assay is classed as cell-based, human.
The test system of assay [2] is MOLM-13. The following applies: published NOXA test results; cited from earlier work.
Assay [3] deals with OCI-AML3. The following applies: published NOXA test results; cited from earlier work.
Assay [4] concerns THP-1. The following applies: published NOXA test results; cited from earlier work.
The subject of assay [5] is HL-60. The following applies: published NOXA test results; cited from earlier work.
The test system of assay [6] is U-937. The following applies: published NOXA test results; cited from earlier work.
Assay [7] relates to KG-1. Particulars: published NOXA test results; cited from earlier work.
Assay [8] relates to MV4-11. Particulars: published NOXA test results; cited from earlier work.
Assay [9] relates to OCI-AML3 cells. Briefly: Titration of concentrations of profiling peptides, Mcl-1 dependency percentage (JC-1). The assay is classed as cell-based. Particulars: profiling peptide at 10 μM; FIG. 2. As to the method:
Briefly, frozen OCI-AML3 cell stocks were rapidly thawed, and cell viability was determined by Trypan Blue exclusion. Cells were washed in PBS and resuspended in DTEB (or MEB) buffer (135 mM Trehalose [or 150 mM Mannitol], 10 mM HEPES, 50 mM KCl, 20 μM EGTA, 20 μM EDTA, 0.1% BSA, 5 mM succinate). The profiling peptides and NOXA (SEQ ID NO:16) were reconstituted in water to make working solutions allowing for final concentrations of: SEQ ID NO:1 (100 μM), SEQ ID NO:1 (30 μM), SEQ ID NO:1 (10 μM), and NOXA (100 μM). […] Profiling peptides, controls, or NOXA (for comparison purposes) were first added to a microplate. […] Fluorescence signal of each well was assessed using an Envision multilabel plate reader at Ex475/Em530 and Ex530/Em595.
Statistical Analysis: For each peptide, the Mcl-1 dependency percentage was calculated using the following formula that determines the dependency:
[formula] Where PC is the fluorescence intensity of the positive control, NC is the fluorescence intensity of the negative control, and Pep is the fluorescence intensity of the peptide at the noted concentration.

Assay [10] deals with MOLM-13 cells. The assay can be described thus: Whole cell assay, JC-1 mitochondrial potential, cells lacking digitonin (FIG. 1B). The class given is cell-based. The following applies: 100 μM peptide, no digitonin. As to the method: Briefly, frozen MOLM-13 and OCI-AML3 cell stocks were rapidly thawed, and cell viability was determined by Trypan Blue exclusion. Cells were washed in PBS and resuspended in DTEB (or MEB) buffer (135 mM Trehalose [or 150 mM Mannitol], 10 mM HEPES, 50 mM KCl, 20 μMI EGTA, 20 μM EDTA, 0.1% BSA, and 5 mM succinate). The profiling peptides and NOXA ([…]; SEQ ID NO:16) were reconstituted in water to make working solutions allowing for final concentrations of: SEQ ID NO:1 (100 μM), SEQ ID NO:14 (100 μM), SEQ ID NO:15 (100 μM), and NOXA (100 μM). […] Profiling peptides, controls, or NOXA (for comparison purposes) were first added to a microplate. Cells (4×10^5) resuspended in DTEB or MEB buffers were then added to a staining solution ([…], 40 μM JC-1, 1 M 2-mercaptoethanol, DTEB or MEB buffer), before being added to the wells of the microplate in the above (for non-digitonin-treated samples, digitonin was not added to the staining solution above). The mixture was then incubated for up to 2 hours at 30° C., in order for cell permeabilization (if needed), delivery of peptides or compounds, and mitochondrial depolarization to occur. Fluorescence signal of each well was assessed using an Envision multilabel plate reader at Ex475/Em530 and Ex530/Em595. […]

Assay [11] concerns MOLM-13 cells. Briefly: Addition of ryanodine to the Example 5 assay. The class given is cell-based. The following applies: 20 nM Ryanodine; Tat-mediated calcium release from the ER; FIG. 4.
Setting [12] is: Sample # 17, subject treated with FLAM, complete response.
Where [13] appears, read: Sample # 18, subject treated with FLAM, complete response.
The mark [14] stands for this setting: Sample # 19, subject treated with FLAM, complete response.

“AELPPEFAAQLRKIGDKVYC (NOXA sequence) [standard NOXA BH3 peptide, used for comparison]”: the “Reference Lab NOXA Priming %” value is on record as 14.0% in [1] (Sample # 1); 60.0% in [1] (Sample # 2); 16.0% in assay [1] (Sample # 3); 0.0% in assay [1] (Sample # 4); 94.4% in assay [1] (Sample # 5); 48.6% in assay [1] (Sample # 6). Also, the “Reference Lab NOXA Priming %” value in assay [1] (Sample # 7) was 0.0%; in assay [1] (Sample # 8), 23.5%; in assay [1] (Sample # 9), 79.1%; in assay [1] (Sample # 10), 38.0%; in assay [1] (Sample # 11), 43.3%; in assay [1] (Sample # 12), 0.0%. In addition, the “Reference Lab NOXA Priming %” value amounted to 0.0% in assay [1] (Sample # 13); 0.0% in assay [1] (Sample # 14); 7.0% in [1] (Sample # 15); 7.0% in assay [1] (Sample # 16); 10.89% in assay [1] (setting [12]); 14.43% in [1] (setting [13]). Moreover, the “Reference Lab NOXA Priming %” value in assay [1] (setting [14]) is given as 0.0%. Moreover, the “Reference Lab NOXA Result (Pos/Neg)” value in assay [1] (Sample # 1) is reported as “Neg (Concordance based on cutoff of ≥40% MCL-1 Dependency for both methods.)”; in [1] (Sample # 2), “Pos (Concordance based on cutoff of ≥40% MCL-1 Dependency for both methods.)”; in assay [1] (Sample # 3), “Neg (Concordance based on cutoff of ≥40% MCL-1 Dependency for both methods.)”; in [1] (Sample # 4) it was “Neg (Concordance based on cutoff of ≥40% MCL-1 Dependency for both methods.)”; in assay [1] (Sample # 5), “Pos (Concordance based on cutoff of ≥40% MCL-1 Dependency for both methods.)”; in assay [1] (Sample # 6), “Pos (Concordance based on cutoff of ≥40% MCL-1 Dependency for both methods.)”. In addition, the “Reference Lab NOXA Result (Pos/Neg)” value in [1] (Sample # 7) is listed as “Neg (Concordance based on cutoff of ≥40% MCL-1 Dependency for both methods.)”; in assay [1] (Sample # 8), “Neg (Concordance based on cutoff of ≥40% MCL-1 Dependency for both methods.)”; in assay [1] (Sample # 9), “Pos (Concordance based on cutoff of ≥40% MCL-1 Dependency for both methods.)”; in [1] (Sample # 10), “Neg (Concordance based on cutoff of ≥40% MCL-1 Dependency for both methods.)”; in assay [1] (Sample # 11) it was “Pos (Concordance based on cutoff of ≥40% MCL-1 Dependency for both methods.)”; in assay [1] (Sample # 12), “Neg (Concordance based on cutoff of ≥40% MCL-1 Dependency for both methods.)”. For the same substance, the “Reference Lab NOXA Result (Pos/Neg)” value in [1] (Sample # 13), in [1] (Sample # 14), in assay [1] (Sample # 15), in [1] (Sample # 16), in assay [1] (setting [12]) and in assay [1] (setting [13]) was “Neg (Concordance based on cutoff of ≥40% MCL-1 Dependency for both methods.)” each time. Moreover, the “Reference Lab NOXA Result (Pos/Neg)” value in assay [1] (setting [14]) is listed as “Neg (Concordance based on cutoff of ≥40% MCL-1 Dependency for both methods.)”. Also, the “NOXA Priming %” value in assay [2] is 19.24%; in [3], 21.96%; in assay [4], 11.28%; in assay [5] it was 7.60%; in [6], 24.35%; in [7] it was 12.39%. For the same substance, the “NOXA Priming %” value in [8] is on record as 12.84%.

For the substance “RPEIWMTQGLRRLGDEINAYYAR (Exemplary Mcl-1 Binding Domain sequence) [SEQ ID NO:1]”, in assay [9], the “Mcl-1 dependency percentage compared to NOXA at 100 μM” value is “comparable value”.

On to “RPEIWMTQGLRRLGDEINAYYARGGGYGRKKRRQRRR (profiling peptide sequence) [SEQ ID NO:15]”, for which the “activity compared to the positive control (FCCP)” value in assay [10] was “exceeded the activity of the positive control”.

On to ryanodine, for which the nonspecific dye uptake result in assay [11] is “prevented nonspecific dye uptake”.
